Measured values taken from US10155732B2, “Ribonucleotide reductase inhibitors and methods of use” (City of Hope, priority 2012, dated 2018).
Values joined by “and” are separate entries in the source; they are usually repeats but may differ in a detail not shown here. Equal entries are not always repeated. Where two headings read alike, the source gives them in different places. Blank lines part the entries; values can stand above or below the compound they belong to.

Key:
[1] = single-dose pharmacokinetic evaluation in rats; assay type: in vivo, rat
Method: COH20 was injected into three male rats at 1 mg/kg for single-dose pharmacokinetic evaluation. […] More detailed pharmacokinetic studies will be performed with various dosages of COH20 to establish parameters such as clearance, bioavailability, and tissue/plasma partition coefficients.
Pharmacokinetic evaluation was performed on COH29 using the same techniques, with COH29 administered at a dosage of 25 mg/kg.

Leukemia SUP B15 = test: MTT cytotoxicity assay; assay type: cell-based; settings: Homo sapiens
Method: (§1) The in vitro cytotoxicity of COH4 and COH20 towards human leukemia REH and MOLT-4 cells, human prostate cancer LNCaP cells, human oropharyngeal cancer KB cells, and normal fibroblast NHDF cells was evaluated using an MTT assay. 5,000 cells were seeded on six-well plates for 72 hours with various concentrations of drug. COH20 was cytotoxic to the cancer cell lines at less than 10 μM, while causing less cytotoxicity to normal cells than 3-AP.
(§2) The in vitro cytotoxicity of COH29 towards a panel of human cancer cell lines was tested using the MTT assay described above.

Leukemia CCRF-CEM = test: MTT cytotoxicity assay; assay type: cell-based; settings: Homo sapiens
Method: as §1, §2

[2] = tested on: human leukemia MOLT-4 cells; test: MTT cytotoxicity assay; assay type: cell-based
Method: as §1, §2

Ovarian Cancer OV 90 = test: MTT cytotoxicity assay; assay type: cell-based; settings: Homo sapiens
Method: as §1, §2

[3] = tested on: NCI 60 human cancer cell lines; test: MTT cytotoxicity assay, panel of human cancer cell lines; assay type: cell-based
Method: as §1, §2

[4] = tested on: human prostate cancer LNCaP cells; test: MTT cytotoxicity assay; assay type: cell-based; settings: 72 hours
Method: as §1

[5] = tested on: human oropharyngeal cancer KB cells; test: MTT cytotoxicity assay; assay type: cell-based; settings: 72 hours
Method: as §1

human leukemia REH cells = test: MTT cytotoxicity assay; assay type: cell-based; settings: 72 hours
Method: as §1

[6] = tested on: normal fibroblast NHDF cells; test: MTT cytotoxicity assay; assay type: cell-based, human; settings: 72 hours
Method: as §1

[7] = molecular target: recombinant RRM1/RRM2 complex (Homo sapiens (Human), UniProt P31350); test: in vitro holoenzyme-based RR assay, [3H]CDP reduction by HPLC; assay type: biochemical; settings: for inhibition of native RRM1/RRM2 activity in vitro screen: screen of top 80 virtual screening candidates
Source text: Compounds that docked into the ligand binding pocket were identified using the TRIPOS FlexX docking tool and ranked using an embedded consensus docking score. […] The assay utilized recombinant RRM1/RRM2 or RRM1/RRM2 complex and measured [^3H]CDP reduction activity (i.e., CDP to dCDP) by HPLC.

intracellular RR = intracellular RR activity in lysates of treated KB cells; assay type: cell-based, human; settings: KB cells treated with 10 μM
Method: To confirm that the ability of COH20 to inhibit RR activity was not specific to recombinant RR, an assay was performed testing the effect of COH20 on intracellular RR. KB cells treated with 10 μM COH20 were lysed, and protein was extracted in a high salt buffer and passed through a G25 SEPHADEX® column to remove small molecules such as dNTP. The eluate was mixed with [^3H]CDP in reaction buffer to monitor RR activity. Treatment with COH20 decreased intracellular RR activity by approximately 50% (FIG. 7).

[8] = tested on: REH, MOLT-4, LNCaP and KB cancer cell lines; test: MTT cytotoxicity assay, cancer cell lines together; assay type: cell-based, human
Method: as §1

KBHURs = test: in vitro cytotoxicity assay, HU-resistant clone; assay type: cell-based, human; settings: overexpresses RRM2
Method: as §1
In vitro cytotoxicity assays were repeated using KBHURs, an HU-resistant clone derived from KB cells that overexpresses RRM2. […] Similar experiments will be repeated using the gemcitabine resistant cell line KBGem, which also overexpresses RRM2.

KBMDR = test: in vitro cytotoxicity assay, multidrug resistant clone; assay type: cell-based, human
[9] = rats, 25 mg/kg, individual analysis 1-3
[10] = Homo sapiens, MOLT-4, 72 hours, Table 3, read-out: IC50 MOLT-4
[11] = RR activity, Table 1, read-out: IC50 ± S.D.

Sequence of recombinant RRM1/RRM2 complex (P31350 whole entry, one chain of several): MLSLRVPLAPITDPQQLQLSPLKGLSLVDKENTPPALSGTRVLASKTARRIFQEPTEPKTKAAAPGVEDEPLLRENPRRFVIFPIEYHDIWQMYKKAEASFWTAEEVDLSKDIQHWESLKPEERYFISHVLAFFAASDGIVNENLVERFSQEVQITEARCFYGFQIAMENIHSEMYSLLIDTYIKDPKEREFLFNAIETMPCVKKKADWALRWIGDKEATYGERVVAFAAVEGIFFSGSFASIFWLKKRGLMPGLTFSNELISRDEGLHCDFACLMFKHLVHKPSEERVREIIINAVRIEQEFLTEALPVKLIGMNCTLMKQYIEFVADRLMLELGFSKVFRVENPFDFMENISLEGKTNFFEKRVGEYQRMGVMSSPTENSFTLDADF

- AUC ([1]; rat, plasma, intravenous, 25 mg/kg, rats, 25 mg/kg, Avg. of triplicate, read-out: AUC): 3480 ng·h/mL
- Cmax ([1]; rat, plasma, intravenous, 25 mg/kg, rats, 25 mg/kg, Avg. of triplicate, read-out: Cmax): 27600 ng/mL
- half-life ([1]; rat, plasma, intravenous, 25 mg/kg, rats, 25 mg/kg, Avg. of triplicate, read-out: T1/2 (converted)): 2.67 h
- Vd ([1]; rat, plasma, intravenous, 25 mg/kg, rats, 25 mg/kg, Avg. of triplicate, read-out: Vss): 0.804 L/kg
- AUC ([1]; rat, plasma, intravenous, 25 mg/kg, rats, 25 mg/kg, individual analysis 1-3, read-out: AUC): 3670 ng·h/mL
- Cmax ([1]; rat, plasma, intravenous, 25 mg/kg, rats, 25 mg/kg, individual analysis 1-3, read-out: Cmax): 31300 ng/mL
- clearance ([1]; rat, plasma, intravenous, 25 mg/kg, rats, Avg. of triplicate): 122 mL/min/kg
- clearance ([1]; rat, plasma, intravenous, 25 mg/kg, rats, individual analysis 1-3): 114 mL/min/kg
- Tmax ([1]; rat, plasma, intravenous, rats, 25 mg/kg, individual analysis 1-3): 1.8 min
- AUC [1, 9]: 2861 ng·h/mL and 3918 ng·h/mL
- CL [1, 9]: 145.6 mL/min/kg and 106.4 mL/min/kg
- Cmax [1, 9]: 26000 ng/mL and 25600 ng/mL
- T1/2 [1, 9]: 0.4 h and 7.6 h and 0.03 h
- Vss [1, 9]: 1.185 L/kg and 0.576 L/kg and 0.653 L/kg
- AUC dose dependence ([1]; rats, i.v. bolus): dose-dependent manner
SMILES: O=C(Nc1nc(-c2ccc(O)c(O)c2)c(-c2ccccc2)s1)c1ccc(O)c(O)c1 [COH29]
- IC50 (Leukemia SUP B15): 5 µM
- IC50 (Leukemia CCRF-CEM): 2.8 µM
- IC50 ([2]; Homo sapiens, MOLT-4, Table 4, read-out: IC50 Leukemia MOLT-4): 2.5 µM
- IC50 (Ovarian Cancer OV 90): 2.6 µM
- GI50 ([3]; except HT29, UACC-257, NCI/ADR-RES, CAKI-1): < 10 µM
- IC50 ([3]; except colon cancer HT29, melanoma UACC-257, ovarian cancer NCI/ADR-RES, renal cancer CAKI-1, read-out: IC50 in all cell types tested): < 10 µM

- IC50 [7, 11]: 15.3 ± 1.8 µM
SMILES: O=C(Nc1nc(-c2ccc(O)c(O)c2)cs1)c1ccccc1 [COH4]
- IC50 ([4]; Homo sapiens, LNCaP): 23 µM
- IC50 ([5]; Homo sapiens, KB): 30.6 µM
- IC50 (human leukemia REH cells; Homo sapiens, REH): 20.6 µM
- IC50 ([6]; Homo sapiens, NHDF): 52.6 µM
- IC50 [2, 10]: 11.8 µM

- inhibition of native RRM1/RRM2 activity in vitro screen [7]: ≥ 80%
SMILES: O=C1C(Cl)=C(Nc2ccc(S(=O)(=O)Nc3ccccn3)cc2)C(=O)c2ccccc21 [NSC #45382]

- half-life ([1]; male, rat, plasma, other: injected, 1 mg/kg, three male rats, 1 mg/kg, plasma, read-out: terminal half-life (T1/2) (converted)): ~5.5 h
- inhibition of the recombinant RRM1/RRM2 complex in vitro [7]: 90.2%
- IC50 [7, 11]: 9.3 ± 2.3 µM
- IC50 ([7]; Table 2, no added Fe, read-out: IC50 ± S.D. RRM1/RRM2): 9.31 ± 2.3 µM
SMILES: O=C(Nc1nc(-c2ccc(O)c(O)c2)cs1)c1ccc(O)c(O)c1 [COH20]
- IC50 ([4]; Homo sapiens, LNCaP): 8.49 µM
- IC50 ([5]; Homo sapiens, KB): 9.25 µM
- IC50 (human leukemia REH cells; Homo sapiens, REH): 2.54 µM
- IC50 ([6]; Homo sapiens, NHDF): 82.8 µM
- decrease of intracellular RR activity (intracellular RR): approximately 50%
- concentration cytotoxic / growth inhibiting to the cancer cell lines [8]: less than 10 μM
- cytotoxicity to KBHURs (in words) (KBHURs): cytotoxic to KBHURs at significantly lower concentrations than the other RR inhibitors tested
- IC50 [2, 10]: 5.26 µM
- concentration exhibiting cytotoxicity towards KBMDR cells (KBMDR): 80 µM
- cytotoxicity to KBMDR (in words) (KBMDR; overexpresses the MDR pump): at lower concentrations than 3-AP or HU

- IC50 [7, 11]: 1.2 ± 0.13 µM
SMILES: NC(=S)NN=Cc1ncccc1N [Compound 3-AP, 3-aminopyridine-2-carboxaldehyde thiosemicarbazone, reference compound]
- IC50 ([4]; Homo sapiens, LNCaP): 1.75 µM
- IC50 ([5]; Homo sapiens, KB): 1.98 µM
- IC50 (human leukemia REH cells; Homo sapiens, REH): 1.42 µM
- IC50 ([6]; Homo sapiens, NHDF): 7.35 µM
- IC50 [2, 10]: 1.21 µM
- concentration exhibiting cytotoxicity towards KBMDR cells (KBMDR): 200 µM

- inhibition of native RRM1/RRM2 activity in vitro screen [7]: ≥ 80%
SMILES: Cl.O=c1oc2ccccc2c(O)c1C=Nc1nc(-c2ccc(O)c(O)c2)cs1 [NSC #659390]

- IC50 [7, 11]: 148 ± 7.34 µM
SMILES: NC(=O)NO [HU, hydroxyurea, reference compound]
- IC50 [4]: 280 µM
- IC50 [5]: 300 µM
- IC50 (human leukemia REH cells): 32.8 µM
- IC50 [6]: > 1000 µM
- IC50 ([2]; 72 hours, Table 3, read-out: IC50 MOLT-4): 165 µM
- concentration exhibiting cytotoxicity towards KBMDR cells (KBMDR): > 1000 µM
